Reference: ChEMBL document CHEMBL1147855, “Synthesis and evaluation of sulfonylurea derivatives as novel antimalarials” (Eur J Med Chem, 2007)

What was measured:
Mus musculus = experiment: Survival of NIH mice (Mus musculus) infected with Plasmodium berghei ANKA infected erythrocytes at 20 mg/kg, intraperitoneal after 4 days by Peter's test; assay type: functional
[1] = Inhibition of hemoglobin hydrolysis in mouse erythrocytes at 5 mM after 18 hrs relative to control; assay type: cell-based; conditions: Erythrocyte
Plasmodium berghei = experiment: Antimalarial activity against Plasmodium berghei ANKA at 20 mg/kg intraperitoneal dose as reduced parasitaemia by Peter's assay; assay type: functional; set-up: scale not given: the % may be the effect or the level left
Plasmodium falciparum = experiment: Antimalarial activity against chloroquine-resistant Plasmodium falciparum W2 after 48 hrs by FACS; assay type: functional, organism-based; conditions: W2, 48 h

| Compound | Survival (Mus musculus) [days] | inhibition at 5000 µM [1] [%] | Activity (Plasmodium berghei) [%] | IC50 (Plasmodium falciparum) [µM] |
| --- | --- | --- | --- | --- |
| O=C(Nc1ccc(C(=O)/C=C/c2ccc3c(c2)OCO3)cc1)NS(=O)(=O)c1ccc(Cl)cc1 | 2.16 | 50.6 | 3.4 | 9.7 |
| Cc1ccc(S(=O)(=O)NC(=O)Nc2ccc(C(=O)/C=C/c3ccc(F)cc3)cc2)cc1 |  |  |  | 10 |
| Cc1ccc(S(=O)(=O)NC(=O)Nc2ccc(C(=O)/C=C/c3ccc4c(c3)OCO4)cc2)cc1 |  |  |  | 9.6 |
| Cc1ccc(S(=O)(=O)NC(=O)Nc2ccc(C(=O)/C=C/c3cc4ccccc4nc3Cl)cc2)cc1 |  |  |  | 9.6 |
| COc1cc2cc(/C=C/C(=O)c3ccc(NC(=O)NS(=O)(=O)c4ccc(C)cc4)cc3)c(Cl)nc2cc1OC |  |  |  | 10 |
| O=C(Nc1ccc(C(=O)/C=C/c2ccc(F)cc2)cc1)NS(=O)(=O)c1ccc(Cl)cc1 | 1 | 34.5 | 10.6 | 10 |
| COc1cc(/C=C/C(=O)c2ccc(NC(=O)NS(=O)(=O)c3ccc(Cl)cc3)cc2)cc(OC)c1OC | 1.83 | 36.7 | 8 | 9.4 |
| Cc1ccc(S(=O)(=O)NC(=O)Nc2ccc(C(=O)/C=C/c3ccc(F)cc3F)cc2)cc1 | 1 | 90.3 | 15.2 | 1.2 |
| COc1cc(/C=C/C(=O)c2ccc(NC(=O)NS(=O)(=O)c3ccc(C)cc3)cc2)cc(OC)c1OC |  |  |  | 8.8 |
| O=C(Nc1ccc(C(=O)/C=C/c2ccc(F)cc2F)cc1)NS(=O)(=O)c1ccc(Cl)cc1 | 3 |  | 5.2 | 2.1 |
| CCN(CC)CCCC(C)Nc1ccnc2cc(Cl)ccc12 (configuration not stated) [CHLOROQUINE] |  |  | 3.66 |  |
| CC(=O)N[C@@H](CC(C)C)C(=O)N[C@@H](CC(C)C)C(=O)N[C@H](C=O)CCCNC(=N)N [LEUPEPTIN] |  | 87 |  |  |
| CC(C)CC(=O)N[C@H](C(=O)N[C@H](C(=O)N[C@@H](CC(C)C)[C@@H](O)CC(=O)N[C@@H](C)C(=O)N[C@@H](CC(C)C)[C@@H](O)CC(=O)O)C(C)C)C(C)C [PEPSTATIN] |  | 91.9 |  |  |
